Molecules are shown by their SMILES. Where two headings read alike, the source gives them in different places.

49 compounds from patent publication US8044198B2, “Sirtuin modulating compounds” (Sirtris Pharmaceuticals, Inc., priority 2005, dated 2011) can be followed below.

This assay deals with T1, SIRT1 (Homo sapiens, UniProt Q96EB6).
T1 sequence (Q96EB6 1-747): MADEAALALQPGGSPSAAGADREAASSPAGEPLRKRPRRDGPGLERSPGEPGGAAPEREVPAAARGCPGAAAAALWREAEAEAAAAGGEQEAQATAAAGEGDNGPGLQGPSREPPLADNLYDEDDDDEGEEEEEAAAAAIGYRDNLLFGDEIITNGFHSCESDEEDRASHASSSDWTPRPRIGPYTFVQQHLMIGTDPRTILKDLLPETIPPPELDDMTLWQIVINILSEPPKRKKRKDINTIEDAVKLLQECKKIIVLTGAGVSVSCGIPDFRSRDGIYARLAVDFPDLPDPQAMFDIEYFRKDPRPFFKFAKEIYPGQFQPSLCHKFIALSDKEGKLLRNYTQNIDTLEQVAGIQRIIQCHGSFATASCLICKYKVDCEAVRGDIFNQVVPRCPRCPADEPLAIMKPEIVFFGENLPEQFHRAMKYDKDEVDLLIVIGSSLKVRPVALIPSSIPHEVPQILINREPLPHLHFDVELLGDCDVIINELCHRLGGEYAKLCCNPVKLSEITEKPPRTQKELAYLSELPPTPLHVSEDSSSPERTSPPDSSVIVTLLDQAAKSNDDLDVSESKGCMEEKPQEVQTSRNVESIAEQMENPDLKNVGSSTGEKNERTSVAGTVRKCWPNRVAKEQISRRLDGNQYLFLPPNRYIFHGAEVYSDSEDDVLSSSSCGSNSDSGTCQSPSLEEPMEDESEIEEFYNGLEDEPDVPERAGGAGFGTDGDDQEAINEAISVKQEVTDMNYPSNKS
Description: SIRT1 mass spectrometry (MS) based deacetylation assay. As to FOLD ACT. MS: test concentration or dose not given here. It is filed as biochemical.

The mark [1] stands for this setting: SIRT1 activation, mass spectrometry assay, read-out: ED50 MS ASSAY.
The mark [2] stands for this setting: fold activation of SIRT1 as determined by MS.

Consider `COc1cc(C(=O)Nc2ccccc2-c2cccs2)cc(OC)c1OC` [336 10], for which the EC50 under setting [1] is 5 to 50 µM. For the same compound, where the note is “fold activation of SIRT1, mass spectrometry assay”, the “FOLD ACT. MS” value is recorded as “B (B (Fold Activation <250%))”.

As for `O=C(Nc1cccc(-c2nc3ncccc3o2)c1)c1ccccc1` [Compound 56], the EC50 under setting [1] lay in the range of 5 to 50 µM. Further, under setting [2], the “FOLD ACT. MS” value is “B (B (Fold Activation <250%))”.

`COc1cc(C(=O)Nc2cccc(-c3nc4ncccc4o3)n2)cc(OC)c1OC` [Compound 57]: the EC50 under setting [1] fell in the range of 5 to 50 µM.

With `COc1ccc(S(=O)(=O)Nc2cccc(-c3nc4ncccc4o3)n2)cc1OC` [Compound 60], the EC50 under setting [1] was 5 to 50 µM.

Regarding `COc1ccc(C(=O)Nc2cc(-c3nc4ncccc4o3)ccn2)cc1OC` [Compound 63], the EC50 under setting [1] lay within 5 to 50 µM.

As to `CN(C)c1cccc(C(=O)Nc2cccc(-c3nc4ncccc4o3)n2)c1` [Compound 64], under setting [1], the EC50 is 5 to 50 µM.

Turning to `COc1cc(C(=O)Nc2cncc(-c3nc4ncccc4o3)c2)cc(OC)c1OC` [Compound 66], the EC50 under setting [1] fell in the range of 5 to 50 µM.

Take `COc1ccc(C(=O)Nc2cncc(-c3nc4ncccc4o3)c2)cc1OC` [Compound 67]: the EC50 under setting [1] fell in the range of 5 to 50 µM.

With `CN(C)c1cccc(C(=O)Nc2cncc(-c3nc4ncccc4o3)c2)c1` [Compound 68], under setting [1], the EC50 lay in the range of 5 to 50 µM.

In the case of `COc1ccc(C(=O)Nc2cccc(-c3nc4ncccc4o3)n2)c(OC)c1` [Compound 69], the EC50 under setting [1] lay within 5 to 50 µM. Under setting [2], the “FOLD ACT. MS” value is “B (B (Fold Activation <250%))”.

With `CN(C)c1ccc(C(=O)Nc2cccc(-c3nc4ncccc4o3)n2)cc1` [Compound 70], the EC50 under setting [1] fell in the range of 5 to 50 µM. The “FOLD ACT. MS” value under setting [2] was “B (B (Fold Activation <250%))”.

With `O=C(Nc1ccc2c(c1)OCO2)Nc1cccc(-c2nc3ncccc3o2)n1` [Compound 71], under setting [1], the EC50 was in the range of 5 to 50 µM. For the same compound, the “FOLD ACT. MS” value under setting [2] is “B (B (Fold Activation <250%))”.

For `COc1ccc(S(=O)(=O)Nc2cncc(-c3nc4ncccc4o3)c2)cc1OC` [Compound 74], the EC50 under setting [1] is more than 150 µM.

As for `COc1cc(C(=O)Nc2cc(-c3nc4ncccc4o3)ccn2)cc(OC)c1OC` [Compound 75], the EC50 under setting [1] lay within 5 to 50 µM. Further, the “FOLD ACT. MS” value under setting [2] is on record as “B (B (Fold Activation <250%))”.

Turning to `CN(C)c1cccc(C(=O)Nc2cc(-c3nc4ncccc4o3)ccn2)c1` [Compound 76], the EC50 under setting [1] lay in the range of 5 to 50 µM. Further, the “FOLD ACT. MS” value under setting [2] was “B (B (Fold Activation <250%))”.

Take `COc1ccc(C(=O)Nc2cc(-c3nc4ccccc4o3)ccn2)cc1OC` [Compound 77]: the EC50 was in the range of 5 to 50 µM. Further, under setting [2], the “FOLD ACT. MS” value is “B (B (Fold Activation <250%))”.

Consider `COc1ccc(C(=O)Nc2cccc(-c3csc(C)n3)c2)cc1OC` [Compound 80], for which the EC50 under setting [1] lay within 5 to 50 µM. Also, under setting [2], the “FOLD ACT. MS” value is “B (B (Fold Activation <250%))”.

`COc1ccc(C(=O)Nc2cccc(-c3csc(C)n3)c2)c(OC)c1` [Compound 81]: the EC50 under setting [1] was 5 to 50 µM. The “FOLD ACT. MS” value under setting [2] is on record as “B (B (Fold Activation <250%))”.

As for `COc1ccc(C(=O)Nc2cccc(-c3nnc(-c4ccccc4)o3)c2)c(OC)c1` [Compound 82], under setting [1], the EC50 was 101 to 150 µM.

As for `COc1cc(SC)ccc1C(=O)Nc1cccc(-c2nncn2C)c1` [Compound 83], the EC50 under setting [1] fell in the range of 5 to 50 µM. Besides, the “FOLD ACT. MS” value under setting [2] is on record as “B (B (Fold Activation <250%))”.

On to `COc1ccc(C(=O)Nc2cccc(-c3csc(-c4ccccc4)n3)c2)cc1OC` [Compound 84], for which the EC50 under setting [1] lay in the range of 5 to 50 µM. For the same compound, the “FOLD ACT. MS” value under setting [2] is on record as “B (B (Fold Activation <250%))”.

Take `c1ccc2oc(N3CCCN(c4nc5ccccc5o4)CC3)nc2c1` [Compound 85]: the EC50 under setting [1] was more than 150 µM.

Turning to `CN(C)c1ccc(NC(=O)Nc2cccc(-c3nc4ncccc4o3)n2)cc1` [Compound 87], under setting [1], the EC50 was more than 150 µM.

Take `COc1ccc(C(=O)N2CCCN(c3nc4ccccc4o3)CC2)c(OC)c1` [Compound 88]: under setting [1], the EC50 was more than 150 µM.

Regarding `c1cc(Nc2nc3ccccc3s2)cc(-c2nc3ncccc3o2)c1` [Compound 95], the EC50 under setting [1] was less than 5 µM. Further, the “FOLD ACT. MS” value under setting [2] is recorded as “B (B (Fold Activation <250%))”.

Turning to `COc1ccc(C(=O)Nc2ccccc2-c2nc3ncccc3o2)cc1OC` [Compound 96], under setting [1], the EC50 was less than 5 µM. In addition, the “FOLD ACT. MS” value under setting [2] is “B (B (Fold Activation <250%))”.

Consider `CC(C)(C)c1ccc(S(=O)(=O)Nc2ccccc2-c2nc3ncccc3o2)cc1` [Compound 98], for which the EC50 under setting [1] is more than 150 µM.

`O=C(NCc1ccc2c(c1)OCO2)c1cccc(-c2nc3ncccc3o2)c1` [Compound 103]: the EC50 under setting [1] was more than 150 µM.

Consider `COc1ccc(C(=O)Nc2cc(C(=O)N3CCNCC3)cc(-c3nc4ncccc4o3)c2)cc1OC` [Compound 107, 3,4-dimethoxy-N-(3-(oxazolo[4,5-b]pyridin-2-yl)-5-(piperazine-1-carbonyl)phenyl)benzamide], for which, under setting [1], the EC50 was in the range of 5 to 50 µM. Besides, the “FOLD ACT. MS” value under setting [2] was “B (B (Fold Activation <250%))”.

As to `O=C(Nc1cccc(-c2nc3ncccc3o2)c1)c1ccccc1N1CCOCC1` [Compound 109], the EC50 under setting [1] is 5 to 50 µM. In addition, the “FOLD ACT. MS” value under setting [2] is recorded as “B (B (Fold Activation <250%))”.

As to `CN(C)c1cccc(C(=O)Nc2cccc(-c3nc4cccnc4o3)c2)c1` [Compound 111], the EC50 under setting [1] lay within 5 to 50 µM. In addition, the “FOLD ACT. MS” value under setting [2] is given as “B (B (Fold Activation <250%))”.

For `COc1ccc(C(=O)Nc2cccc(-c3nc4cccnc4o3)c2)cc1OC` [Compound 112], under setting [1], the EC50 lay within 5 to 50 µM. Further, the “FOLD ACT. MS” value under setting [2] is on record as “B (B (Fold Activation <250%))”.

On to `CN(C)c1cccc(C(=O)Nc2cccc(-c3nc4ccncc4s3)c2)c1` [Compound 113], for which the EC50 under setting [1] lay within 5 to 50 µM. Also, the “FOLD ACT. MS” value under setting [2] was “B (B (Fold Activation <250%))”.

Turning to `COc1ccc(C(=O)Nc2cccc(-c3nc4ccncc4s3)c2)cc1OC` [Compound 114], the EC50 under setting [1] is less than 5 µM. The “FOLD ACT. MS” value under setting [2] is reported as “A (A (Fold activation >250%))”.

For the compound `COc1cc(C(=O)Nc2cccc(-c3nc4sccn4n3)c2)cc(OC)c1OC` [Compound 118], the EC50 under setting [1] was 5 to 50 µM. Moreover, under setting [2], the “FOLD ACT. MS” value is listed as “A (A (Fold activation >250%))”.

As to `COc1cccc(OC)c1C(=O)Nc1cccc(-c2nc3ccccc3o2)c1` [Compound 119], the EC50 under setting [1] was in the range of 5 to 50 µM. The “FOLD ACT. MS” value under setting [2] is listed as “B (B (Fold Activation <250%))”.

As for `COc1ccc(C(=O)Nc2cccc(-c3nc4ccccc4s3)c2)c(OC)c1` [Compound 124], the EC50 under setting [1] lay in the range of 5 to 50 µM. The “FOLD ACT. MS” value under setting [2] was “B (B (Fold Activation <250%))”.

In the case of `COc1cc(C(=O)Nc2cccc(-c3nc4ccccc4c(=O)o3)c2)cc(OC)c1OC` [Compound 125], the “FOLD ACT. MS” value under setting [2] is “B (B (Fold Activation <250%))”.

In the case of `COc1cccc(OC)c1C(=O)Nc1cccc(-c2nc3ccccc3[nH]2)c1` [Compound 126], under setting [1], the EC50 lay in the range of 5 to 50 µM. For the same compound, the “FOLD ACT. MS” value under setting [2] was “B (B (Fold Activation <250%))”.

For `COc1ccc(C(=O)Nc2cccc(-c3cn4ccc(C)cc4n3)c2)c(OC)c1` [Compound 128], under setting [1], the EC50 was in the range of 5 to 50 µM. Besides, under setting [2], the “FOLD ACT. MS” value is on record as “B (B (Fold Activation <250%))”.

Consider `COc1cc(C(=O)Nc2cccc(-c3cn4ccc(C)cc4n3)c2)cc(OC)c1OC` [Compound 129], for which the EC50 under setting [1] is less than 5 µM. Moreover, the “FOLD ACT. MS” value under setting [2] is “A (A (Fold activation >250%))”.

As for `COc1ccc(C(=O)Nc2cccc(-c3cn4ccc(C)cc4n3)c2)cc1` [Compound 130], the EC50 under setting [1] is 5 to 50 µM. Moreover, under setting [2], the “FOLD ACT. MS” value is listed as “B (B (Fold Activation <250%))”.

`COc1cc(C(=O)Nc2cccc(-c3cn4cccc(C)c4n3)c2)cc(OC)c1OC` [Compound 131]: the EC50 under setting [1] is 5 to 50 µM. The “FOLD ACT. MS” value under setting [2] is reported as “A (A (Fold activation >250%))”.

For the compound `COc1ccccc1C(=O)Nc1cccc(-c2cn3ccsc3n2)c1` [Compound 132], the EC50 under setting [1] was 5 to 50 µM. In addition, the “FOLD ACT. MS” value under setting [2] is recorded as “A (A (Fold activation >250%))”.

Consider `COC(=O)c1cc(NC(=O)c2cc(OC)c(OC)c(OC)c2)cc(-c2nc3ccncc3s2)c1` [Compound 133, methyl 3-(thiazolo[5,4-c]pyridin-2-yl)-5-(3,4,5-trimethoxybenzamido)benzoate], for which the EC50 under setting [1] was less than 5 µM. Under setting [2], the “FOLD ACT. MS” value is listed as “B (B (Fold Activation <250%))”.

Regarding `COc1cc(C(=O)Nc2cc(C(=O)O)cc(-c3nc4ccncc4s3)c2)cc(OC)c1OC` [Compound 134, 3-(thiazolo[5,4-c]pyridin-2-yl)-5-(3,4,5-trimethoxybenzamido)benzoic acid], the EC50 under setting [1] is less than 5 µM. Besides, under setting [2], the “FOLD ACT. MS” value is recorded as “B (B (Fold Activation <250%))”.

For `COC(=O)c1cc(NC(=O)c2ccc(OC)c(OC)c2)cc(-c2nc3ncccc3o2)c1` [Compound 136, Methyl 3-(3,4-dimethoxybenzamido)-5-(oxazolo[4,5-b]pyridin-2-yl)benzoate], the EC50 under setting [1] is more than 150 µM.

For `CN(C)c1cccc(C(=O)Nc2cc(C(=O)N3CCNCC3)cc(-c3nc4ncccc4o3)c2)c1` [Compound 138], the EC50 under setting [1] is 5 to 50 µM. The “FOLD ACT. MS” value under setting [2] is given as “B (B (Fold Activation <250%))”.

With `COc1ccc(C(=O)Nc2cc(C(=O)N3CCNCC3)cc(-c3nc4ncccc4o3)c2)c(OC)c1` [Compound 139], the EC50 under setting [1] fell in the range of 5 to 50 µM. Further, the “FOLD ACT. MS” value under setting [2] is given as “B (B (Fold Activation <250%))”.
